Values of other authors, collected in patent US20260199282A1, “METHODS AND COMPOSITIONS FOR IMPROVING DRIVING PERFORMANCE” (priority 2022, published 2026).

System: patients with narcolepsy or idiopathic hypersomnia
Settings: modafinil 400 mg/day; ~1.5 hours post-dose; cited from earlier work

For NC(=O)C[S+]([O-])C(c1ccccc1)c1ccccc1 (stereo not shown) [modafinil], the “mean SDLP” value is listed as 23.6±0.6 cm.
